What was measured:
Rho kinase 2 = Rho kinase 2 (Homo sapiens, UniProt O75116); assay: In vitro Rho kinase inhibitory activity assay (ADP-Glo kit, Myelin Basic Protein substrate); format: biochemical; conditions: 10 μM ATP, 25° C., read-out: ROCK2 inhibitory activity (Ki, range of activity)
Method in brief: (§1)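 Each kinase (ROCK1 or ROCK2) sat with compound for 30 min at 25 °C before 10 μM ATP started a 1 h reaction on 2.5 μM myelin basic protein (Tris pH 7.5, MgCl2, BSA, DTT, 1% DMSO). ADP formed was read by ADP-Glo luminescence. Dose-response IC50s were converted to Ki by Cheng-Prusoff.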

Rho kinase 1 = Rho kinase 1 (Homo sapiens, UniProt Q13464); assay: as above; format: biochemical; conditions: 10 μM ATP, 25° C., read-out: ROCK1 inhibitory activity (Ki, range of activity)
Method in brief: as §1

Chain of Rho kinase 1 (Q13464 whole entry): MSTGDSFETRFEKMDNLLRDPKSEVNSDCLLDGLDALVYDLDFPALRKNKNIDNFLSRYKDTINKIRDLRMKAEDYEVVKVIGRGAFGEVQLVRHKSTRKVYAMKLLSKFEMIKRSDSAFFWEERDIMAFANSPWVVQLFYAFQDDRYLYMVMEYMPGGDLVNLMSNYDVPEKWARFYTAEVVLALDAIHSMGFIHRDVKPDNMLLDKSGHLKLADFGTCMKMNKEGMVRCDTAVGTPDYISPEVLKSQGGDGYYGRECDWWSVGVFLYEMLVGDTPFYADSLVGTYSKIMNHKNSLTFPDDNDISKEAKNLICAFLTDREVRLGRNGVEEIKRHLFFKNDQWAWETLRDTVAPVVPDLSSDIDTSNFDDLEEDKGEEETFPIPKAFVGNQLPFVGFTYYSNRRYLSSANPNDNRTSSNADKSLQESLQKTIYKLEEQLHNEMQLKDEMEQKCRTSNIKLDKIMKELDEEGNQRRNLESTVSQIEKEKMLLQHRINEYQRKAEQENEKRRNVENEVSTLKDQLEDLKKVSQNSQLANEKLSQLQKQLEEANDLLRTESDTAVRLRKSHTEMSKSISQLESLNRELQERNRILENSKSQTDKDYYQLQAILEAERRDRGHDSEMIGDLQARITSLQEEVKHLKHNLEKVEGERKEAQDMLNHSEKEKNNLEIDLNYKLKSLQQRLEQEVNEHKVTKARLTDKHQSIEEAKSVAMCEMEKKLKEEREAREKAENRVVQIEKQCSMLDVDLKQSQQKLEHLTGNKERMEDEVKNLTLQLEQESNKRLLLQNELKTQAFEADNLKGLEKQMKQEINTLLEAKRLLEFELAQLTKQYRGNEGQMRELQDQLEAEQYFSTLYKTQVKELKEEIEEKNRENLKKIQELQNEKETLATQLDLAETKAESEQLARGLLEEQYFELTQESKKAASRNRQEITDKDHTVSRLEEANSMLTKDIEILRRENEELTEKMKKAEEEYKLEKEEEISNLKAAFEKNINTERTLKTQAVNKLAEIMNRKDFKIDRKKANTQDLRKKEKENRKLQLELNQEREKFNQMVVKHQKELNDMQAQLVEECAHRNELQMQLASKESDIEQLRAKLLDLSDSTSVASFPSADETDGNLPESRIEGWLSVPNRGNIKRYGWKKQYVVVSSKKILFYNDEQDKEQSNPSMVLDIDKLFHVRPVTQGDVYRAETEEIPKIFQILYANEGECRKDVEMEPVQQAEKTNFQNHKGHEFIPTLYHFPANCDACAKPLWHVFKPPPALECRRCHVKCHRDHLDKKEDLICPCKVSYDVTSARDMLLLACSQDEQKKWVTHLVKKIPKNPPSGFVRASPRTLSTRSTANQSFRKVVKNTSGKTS
Chain of Rho kinase 2 (O75116 whole entry): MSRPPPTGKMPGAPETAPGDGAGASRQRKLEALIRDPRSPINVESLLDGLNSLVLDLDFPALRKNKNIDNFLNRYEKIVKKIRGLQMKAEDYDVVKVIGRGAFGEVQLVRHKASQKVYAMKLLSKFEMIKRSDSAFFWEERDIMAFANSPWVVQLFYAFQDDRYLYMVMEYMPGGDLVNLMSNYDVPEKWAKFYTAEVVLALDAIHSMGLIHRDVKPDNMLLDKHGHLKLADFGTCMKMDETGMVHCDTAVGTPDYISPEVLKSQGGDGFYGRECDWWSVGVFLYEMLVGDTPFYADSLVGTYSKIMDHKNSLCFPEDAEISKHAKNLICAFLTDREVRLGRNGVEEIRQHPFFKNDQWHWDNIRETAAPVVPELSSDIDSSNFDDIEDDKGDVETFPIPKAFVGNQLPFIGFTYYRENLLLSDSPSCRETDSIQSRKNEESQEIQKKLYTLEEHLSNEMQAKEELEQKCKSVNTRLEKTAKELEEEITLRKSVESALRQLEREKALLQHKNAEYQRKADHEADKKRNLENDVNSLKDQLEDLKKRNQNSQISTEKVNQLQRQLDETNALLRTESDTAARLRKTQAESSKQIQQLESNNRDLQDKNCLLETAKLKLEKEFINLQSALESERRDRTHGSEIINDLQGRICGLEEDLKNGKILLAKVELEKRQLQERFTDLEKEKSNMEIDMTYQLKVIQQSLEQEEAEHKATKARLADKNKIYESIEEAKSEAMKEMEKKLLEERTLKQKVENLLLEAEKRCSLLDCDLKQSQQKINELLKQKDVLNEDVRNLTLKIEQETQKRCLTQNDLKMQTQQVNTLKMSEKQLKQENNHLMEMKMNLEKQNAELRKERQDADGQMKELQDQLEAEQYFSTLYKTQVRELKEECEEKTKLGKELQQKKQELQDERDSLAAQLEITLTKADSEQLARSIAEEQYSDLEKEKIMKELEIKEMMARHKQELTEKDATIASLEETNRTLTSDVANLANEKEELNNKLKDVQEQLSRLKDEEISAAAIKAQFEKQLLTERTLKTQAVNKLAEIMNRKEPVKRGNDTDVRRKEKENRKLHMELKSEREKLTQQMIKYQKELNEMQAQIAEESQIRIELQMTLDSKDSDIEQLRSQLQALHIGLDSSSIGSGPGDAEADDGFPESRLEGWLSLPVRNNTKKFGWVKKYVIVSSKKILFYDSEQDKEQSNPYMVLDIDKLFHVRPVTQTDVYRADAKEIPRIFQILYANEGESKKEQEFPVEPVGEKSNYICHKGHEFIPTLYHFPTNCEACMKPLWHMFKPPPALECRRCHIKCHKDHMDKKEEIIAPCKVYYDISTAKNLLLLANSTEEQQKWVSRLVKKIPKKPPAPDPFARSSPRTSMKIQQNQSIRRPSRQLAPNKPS

Structure (SMILES)	Ki (Rho kinase 2) [nM]	Ki (Rho kinase 1) [nM]
CC1=C(C(=O)Nc2ccc3cnccc3c2)C(c2ccc(C(F)(F)F)c(F)c2)n2nc(N)cc2N1 (single isomer, unassigned) [130B]	< 50	< 50
CCOC(=O)c1cc2n(n1)C(c1ccc(C(F)(F)F)cc1)C(C(=O)Nc1ccc3[nH]ncc3c1)=C(C)N2 (stereo not shown) [Example 2, ethyl 6-((1H-indazol-5-yl)carbamoyl)-5-methyl-7-(4-(trifluoromethyl)phenyl)-4,7-dihydropyrazolo[1,5-a]pyrimidine-2-carboxylate]	< 50	< 50
CC1=C(C(=O)Nc2ccc3[nH]ncc3c2)C(c2ccc(F)cc2)n2ncc(C(=O)N3CCN(C)CC3)c2N1 (stereo not shown) [Example 91, 7-(4-fluorophenyl)-N-(1H-indazol-5-yl)-5-methyl-3-(4-methylpiperazine-1-carbonyl)-4,7-dihydropyrazolo[1,5-a]pyrimidine-6-carboxamide]	> 500	> 500
CC1=C(C(=O)Nc2ccc3cnccc3c2)C(c2ccc(C(F)(F)F)c(F)c2)n2nc(NC(=O)c3ccc(CN(C)C)cc3)cc2N1 (single isomer, unassigned) [Example 137A, 2-(4-((Dimethylamino)methyl)benzamido)-7-(3-fluoro-4-(trifluoromethyl)-phenyl)-N-(isoquinolin-6-yl)-5-methyl-4,7-dihydropyrazolo[1,5-a]pyrimidine-6-carboxamide]	> 500	> 500
CC1=C(C(=O)Nc2ccc3cnccc3c2)C(c2ccc3cc[nH]c3c2)n2nc(CO)cc2N1 (stereo not shown) [Example 63, 2-(hydroxymethyl)-7-(1H-indol-6-yl)-N-(isoquinolin-6-yl)-5-methyl-4,7-dihydropyrazolo[1,5-a]pyrimidine-6-carboxamide]	< 50	< 50
CC1=C(C(=O)Nc2ccc3[nH]ncc3c2)C(c2ccc(C(F)(F)F)cc2)n2nc(C(=O)O)cc2N1 (stereo not shown) [Example 73, 6-((1H-indazol-5-yl)carbamoyl)-5-methyl-7-(4-(trifluoromethyl)phenyl)-4,7-dihydropyrazolo[1,5-a]pyrimidine-2-carboxylic acid]	< 50	< 50
CC1=C(C(=O)Nc2ccc3cnccc3c2)C(c2ccc(C(F)(F)F)c(F)c2)n2nc(C3CCN(C(=O)CCN4CCCCC4)CC3)cc2N1 (single isomer, unassigned) [135A]	> 500	> 500
CC1=C(C(=O)Nc2ccc3[nH]ncc3c2)C(c2ccc(F)cc2)n2nc(C(=O)N3CCNCC3)cc2N1 (stereo not shown) [Example 93, 7-(4-fluorophenyl)-N-(1H-indazol-5-yl)-5-methyl-2-(piperazine-1-carbonyl)-4,7-dihydropyrazolo[1,5-a]pyrimidine-6-carboxamide]	< 50	< 50
CC1=C(C(=O)Nc2ccc3cnccc3c2)C(c2ccc(Cl)cc2)n2nc(CO)cc2N1 (single isomer, unassigned) [Example 62B, 7-(4-chlorophenyl)-2-(hydroxymethyl)-N-(isoquinolin-6-yl)-5-methyl-4,7-dihydropyrazolo[1,5-a]pyrimidine-6-carboxamide]	50 to 500	50 to 500
CC1=C(C(=O)Nc2ccc3cnccc3c2)C(c2ccc(C(F)(F)F)c(F)c2)n2nc(C(=O)NC3CC3)cc2N1 (stereo not shown) [Example 125, N2-cyclopropyl-7-(3-fluoro-4-(trifluoromethyl)phenyl)-N6-(isoquinolin-6-yl)-5-methyl-4,7-dihydropyrazolo[1,5-a]pyrimidine-2,6-dicarboxamide]	< 50	< 50
CC1=C(C(=O)Nc2ccc3[nH]ncc3c2)C(c2ccc(C(F)(F)F)cc2)n2nc(CN)cc2N1 (stereo not shown) [Example 111, 2-(aminomethyl)-N-(1H-indazol-5-yl)-5-methyl-7-(4-(trifluoromethyl)phenyl)-4,7-dihydropyrazolo[1,5-a]pyrimidine-6-carboxamide]	< 50	< 50
